Assay results: PubChem BioAssay (NCI)
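Where inhibition never reached the appropriate level, the endpoint shown equals the highest concentration tested. Otherwise, values were interpolated linearly from a five-concentration, 48-hour dose response in 96-well plates. Definition used: TGI = concentration required for complete inhibition of growth.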

Legend:
Assay in all cases: NCI anticancer screen, dose series, 48 h
T-47D breast = tested on: T-47D breast
IGROV1 ovarian = tested on: IGROV1 ovarian
MDA-MB-435 = tested on: MDA-MB-435
SNB-19 CNS = tested on: SNB-19 CNS
CAKI-1 renal = tested on: CAKI-1 renal
SK-MEL-2 melanoma = tested on: SK-MEL-2 melanoma
NCI-H226 lung = tested on: NCI-H226 lung
HOP-62 NSCLC = tested on: HOP-62 NSCLC
TK-10 renal = tested on: TK-10 renal
DU-145 prostate = tested on: DU-145 prostate
SF-295 CNS = tested on: SF-295 CNS
MOLT-4 leukemia = tested on: MOLT-4 leukemia
SR leukemia = tested on: SR leukemia
HCT-15 colon = tested on: HCT-15 colon
MALME-3M melanoma = tested on: MALME-3M melanoma
SN12C renal = tested on: SN12C renal
A549 NSCLC = tested on: A549 NSCLC
SW-620 colon = tested on: SW-620 colon
LOX IMVI melanoma = tested on: LOX IMVI melanoma
HOP-92 NSCLC = tested on: HOP-92 NSCLC
ACHN renal = tested on: ACHN renal
SK-MEL-5 melanoma = tested on: SK-MEL-5 melanoma
KM12 colon = tested on: KM12 colon
U251 CNS = tested on: U251 CNS
NCI-H23 lung = tested on: NCI-H23 lung
786-0 renal = tested on: 786-0 renal
HCT-116 colon = tested on: HCT-116 colon
NCI-H460 lung = tested on: NCI-H460 lung
PC-3 prostate = tested on: PC-3 prostate
OVCAR-8 ovarian = tested on: OVCAR-8 ovarian
HS 578T breast = tested on: HS 578T breast
K-562 leukemia = tested on: K-562 leukemia
OVCAR-5 ovarian = tested on: OVCAR-5 ovarian
CCRF-CEM leukemia = tested on: CCRF-CEM leukemia
SF-268 CNS = tested on: SF-268 CNS
OVCAR-3 ovarian = tested on: OVCAR-3 ovarian
NCI/ADR-RES ovarian = tested on: NCI/ADR-RES ovarian
EKVX NSCLC = tested on: EKVX NSCLC
MDA-N = tested on: MDA-N
M14 melanoma = tested on: M14 melanoma
UACC-257 melanoma = tested on: UACC-257 melanoma
UACC-62 melanoma = tested on: UACC-62 melanoma
HT29 colon = tested on: HT29 colon
MCF7 breast = tested on: MCF7 breast
NCI-H522 lung = tested on: NCI-H522 lung
SNB-75 CNS = tested on: SNB-75 CNS
SK-MEL-28 melanoma = tested on: SK-MEL-28 melanoma
COLO 205 colon = tested on: COLO 205 colon
SK-OV-3 ovarian = tested on: SK-OV-3 ovarian
BT-549 breast = tested on: BT-549 breast
RPMI-8226 leukemia = tested on: RPMI-8226 leukemia
UO-31 renal = tested on: UO-31 renal
HL-60(TB) leukemia = tested on: HL-60(TB) leukemia
OVCAR-4 ovarian = tested on: OVCAR-4 ovarian
MDA-MB-231 breast = tested on: MDA-MB-231 breast
SF-539 CNS = tested on: SF-539 CNS
A498 renal = tested on: A498 renal
RXF 393 renal = tested on: RXF 393 renal

Measured: TGI

Cc1ccc(S(=O)(=O)N/N=C2/C3CCC(C3)C2c2ccccc2)cc1 (configuration not stated)
> 100 µM: T-47D breast | IGROV1 ovarian | MDA-MB-435 | SNB-19 CNS | CAKI-1 renal | SK-MEL-2 melanoma | NCI-H226 lung | HOP-62 NSCLC | TK-10 renal | DU-145 prostate | SF-295 CNS | MOLT-4 leukemia | SR leukemia | HCT-15 colon | MALME-3M melanoma | SN12C renal | A549 NSCLC | SW-620 colon | LOX IMVI melanoma | HOP-92 NSCLC | ACHN renal | SK-MEL-5 melanoma | KM12 colon | U251 CNS | NCI-H23 lung | 786-0 renal | HCT-116 colon | NCI-H460 lung | PC-3 prostate | OVCAR-8 ovarian | HS 578T breast | K-562 leukemia | OVCAR-5 ovarian | CCRF-CEM leukemia | SF-268 CNS | OVCAR-3 ovarian | NCI/ADR-RES ovarian | EKVX NSCLC | MDA-N | M14 melanoma | UACC-257 melanoma | UACC-62 melanoma | HT29 colon | MCF7 breast | NCI-H522 lung | SNB-75 CNS | SK-MEL-28 melanoma | COLO 205 colon | SK-OV-3 ovarian | BT-549 breast | RPMI-8226 leukemia | UO-31 renal | HL-60(TB) leukemia | OVCAR-4 ovarian

Cc1cc(=O)[nH]c(-n2[nH]c3c(c2=O)CCCC3)n1
9.37 µM: SNB-75 CNS
> 100 µM: T-47D breast | IGROV1 ovarian | MDA-MB-231 breast | MDA-MB-435 | SNB-19 CNS | SF-539 CNS | CAKI-1 renal | SK-MEL-2 melanoma | NCI-H226 lung | TK-10 renal | DU-145 prostate | SF-295 CNS | MOLT-4 leukemia | SR leukemia | HCT-15 colon | MALME-3M melanoma | A498 renal | SN12C renal | A549 NSCLC | SW-620 colon | HOP-92 NSCLC | ACHN renal | SK-MEL-5 melanoma | KM12 colon | U251 CNS | NCI-H23 lung | 786-0 renal | HCT-116 colon | NCI-H460 lung | PC-3 prostate | HS 578T breast | K-562 leukemia | OVCAR-5 ovarian | CCRF-CEM leukemia | SF-268 CNS | EKVX NSCLC | MDA-N | M14 melanoma | UACC-257 melanoma | UACC-62 melanoma | HT29 colon | MCF7 breast | NCI-H522 lung | SK-MEL-28 melanoma | COLO 205 colon | SK-OV-3 ovarian | BT-549 breast | RPMI-8226 leukemia | UO-31 renal | HL-60(TB) leukemia | OVCAR-4 ovarian
48.7 µM: RXF 393 renal
